Data set [1] has as its system panel of kinases. The data set can be described thus: kinome profiling at 1 μM. It is filed as biochemical. From the text: (§1) We profiled three compounds from the series across the kinome (FIG. 11). […] To identify the structural drivers for CDK inhibition, we obtained X-ray crystal structures of 5 y and 6 g SU1336 and SU1349 with CDK-2 (FIG. 12A) to potentially identify possible routes towards introducing selectivity for IKKα over the CDK enzymes as well as IKKβ. […] All three derivatives form complexes with CDK2 with the pyrrolo[2,3 -b]pyridine H-bonding to GK+3 (Leu 83 ) and the aminoindazole projected towards the G-loop (FIG. 12A), forming H-bonds with Glu 51 and Lys 33 at the back of the pocket. The adoption of the 4 SU1253 -type orientation, rather than the flipped pose observed in IKKα, is probably facilitated by Tr-stacking between the aminoindazole and the GK residue, which in the CDKs is Phe, rather than Met. […] For 6 g SU1349, the hydrophobic pendant benzyloxy group points out into solvent, but can form face-to-edge Tr-Tr interactions with Phe 82 and His 84 from the hinge. Exchanging the hydrophobic pendant benzyloxy group for the morpholinoethyl-containing substituent in 5 y SU1336 removes any direct interaction with these hinge residues, preferring to sit in a more solvent-exposed position, as befits a basic side chain that will be protonated at physiological pH (FIG. 12B).
(§2) Black, 4 SU1253; grey, 5 r SU1261; diagonal stripes, 6 g SU1349. […] All tested compounds (4 SU1253, 5 r SU1261 and 6 g SU1349 ) inhibited CDK5 and CDK9 with >80 %.

Data set [2] concerns the target CDK9 (Homo sapiens, UniProt P50750). The data set can be described thus: kinome profiling at 1 μM, CDK9. The class given is biochemical. The following applies: read-out: % inhibition of CDK9.
Description: as §1, §2

Data set [3] has as its target CDK5 (Homo sapiens, UniProt Q00535). Put plainly: kinome profiling at 1 μM, CDK5. The class given is biochemical. The following applies: read-out: % inhibition of CDK5.
Description: as §1, §2

In data set [4] the target is T1, IKKβ (Homo sapiens, UniProt O14920).
T1 sequence (O14920 1-756): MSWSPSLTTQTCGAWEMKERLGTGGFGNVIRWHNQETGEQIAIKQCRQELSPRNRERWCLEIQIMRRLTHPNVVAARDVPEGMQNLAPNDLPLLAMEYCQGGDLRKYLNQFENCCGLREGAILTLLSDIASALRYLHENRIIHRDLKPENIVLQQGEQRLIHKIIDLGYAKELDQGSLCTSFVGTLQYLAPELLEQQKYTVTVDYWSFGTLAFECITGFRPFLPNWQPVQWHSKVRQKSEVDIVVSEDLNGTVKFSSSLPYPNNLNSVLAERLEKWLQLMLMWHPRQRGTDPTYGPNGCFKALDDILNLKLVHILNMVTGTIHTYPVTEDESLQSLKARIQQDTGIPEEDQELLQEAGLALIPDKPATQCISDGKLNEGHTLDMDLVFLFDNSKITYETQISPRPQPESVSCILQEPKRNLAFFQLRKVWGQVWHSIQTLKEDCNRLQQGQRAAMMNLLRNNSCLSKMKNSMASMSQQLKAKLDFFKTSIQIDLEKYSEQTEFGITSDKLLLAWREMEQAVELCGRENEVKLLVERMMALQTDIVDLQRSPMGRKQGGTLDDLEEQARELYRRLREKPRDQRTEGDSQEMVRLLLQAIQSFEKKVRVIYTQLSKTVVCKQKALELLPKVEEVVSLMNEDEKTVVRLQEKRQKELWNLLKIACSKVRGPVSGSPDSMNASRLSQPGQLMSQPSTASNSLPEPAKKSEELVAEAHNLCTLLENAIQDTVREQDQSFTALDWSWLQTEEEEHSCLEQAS
The data set can be described thus: in-house DELFIA kinase assay, IKKβ. The class given is biochemical. From the text: (§3) To examine the pyrrolo[2,3 -b]pyridines as an alternative scaffold, we adopted the AIPP core because it had similar dimensions to 1 SU909, with HBD/HBA motifs positioned at the scaffold extremities to interact with both the hinge region and the G-loop wall of IKKα, a rationale we had previously proposed as the basis for imparting selectivity. A preliminary set of AIPP derivatives was designed to explore its utility as an IKK-targeting scaffold, whilst incorporating additional functionality through which to introduce selectivity for the IKKα isoform (2-4 SU1087, SU1266 and SU1253; FIG. 3). This was achieved by initially adopting two different approaches: either appending a hydrophobic moiety to the pyrrolo[2,3 -b]pyridine motif as a fused form to afford the tricyclic derivatives 2 and 3 SU1266 and SU1087, or as a phenyl substituent to introduce flexibility with the central pyrrolo[2,3 -b]pyridine moiety in 4 SU1253 .

In data set [5] the target is T2, IKKα (Homo sapiens, UniProt O15111).
T2 sequence (O15111 1-745): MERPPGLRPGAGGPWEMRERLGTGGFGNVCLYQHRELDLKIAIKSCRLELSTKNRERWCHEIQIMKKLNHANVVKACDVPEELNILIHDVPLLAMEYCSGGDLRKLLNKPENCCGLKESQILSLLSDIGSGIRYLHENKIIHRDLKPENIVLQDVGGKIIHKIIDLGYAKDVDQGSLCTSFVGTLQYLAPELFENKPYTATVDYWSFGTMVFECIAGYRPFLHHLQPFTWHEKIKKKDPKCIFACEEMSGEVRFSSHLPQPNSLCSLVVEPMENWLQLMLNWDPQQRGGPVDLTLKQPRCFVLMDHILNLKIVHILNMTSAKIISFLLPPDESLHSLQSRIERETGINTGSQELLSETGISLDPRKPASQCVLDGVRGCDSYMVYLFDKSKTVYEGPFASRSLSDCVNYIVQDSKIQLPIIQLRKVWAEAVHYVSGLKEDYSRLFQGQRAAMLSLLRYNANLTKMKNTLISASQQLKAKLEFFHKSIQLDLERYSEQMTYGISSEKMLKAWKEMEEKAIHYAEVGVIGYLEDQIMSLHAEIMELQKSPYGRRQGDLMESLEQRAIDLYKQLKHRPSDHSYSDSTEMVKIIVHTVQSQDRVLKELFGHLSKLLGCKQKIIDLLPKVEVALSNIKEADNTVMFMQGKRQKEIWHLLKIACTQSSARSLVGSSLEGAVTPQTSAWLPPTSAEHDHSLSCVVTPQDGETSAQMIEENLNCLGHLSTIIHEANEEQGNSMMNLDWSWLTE
Put plainly: in-house DELFIA kinase assay, IKKα. The class given is biochemical.
Description: as §3, with “SU1253 . […] The pyrrolo[2,3 -b]pyridine was bound to the hinge region in the classical HBA/HBD motif with the GK+3 NH and C═O backbone, whilst the aminoindazole projected towards the top of the pocket to interact with the G-loop (FIG. 4A). […] In both isoforms, the 2 -phenyl moiety was oriented out from the hinge towards the exposed solvent area.” for “SU1253 .”

A short description of data set [6]: mouse hepatocyte clearance (cryopreserved pooled mouse CD1 hepatocytes). The class given is in vitro ADME. The following applies: mouse, hepatocytes; 1 μM; 0.5×10^6 cells/mL; 37° C. As to the method: Pharmacokinetic studies were contracted to Sygnature Discovery Limited. Intrinsic clearance and half life were determined using cryopreserved pooled mouse CD1 hepatocytes. Test compounds were analysed at 1 μM in Williams Media E buffer (0.01 % DMSO) at a cell density of 0.5×10^6 cells mL^−1 . Cells were incubated at 37° C. for one hour with shaking and compound depletion was measured by LC-MS/MS at six timepoints (0.25, 5, 10, 20, 40, and 60 minutes).

A short description of data set [7]: Turbidimetric solubility. It is filed as physicochemical.
Data set [8] concerns IKKα over IKKβ. The data set can be described thus: selectivity for IKKα over IKKβ from the kinase assay. It is filed as biochemical.
Description: as §3, with “SU1253 . […] The pyrrolo[2,3 -b]pyridine was bound to the hinge region in the classical HBA/HBD motif with the GK+3 NH and C═O backbone, whilst the aminoindazole projected towards the top of the pocket to interact with the G-loop (FIG. 4A). […] In both isoforms, the 2 -phenyl moiety was oriented out from the hinge towards the exposed solvent area.” for “SU1253 .”
To shift the selectivity profile towards IKKα, we selected 4 SU1253 for structural optimization based on the notion that sigma-bond rotation between the phenyl ring and the pyrrolo[2,3 -b]pyridine would inbuild the flexibility required to engage with the three dimensional array of residues nearby to exploit differences between the two isoforms. Furthermore, this would enable the inclusion of moieties that could also project into solvent and address solubility considerations. Small groups (NH2, OH, OMe, OEt and F) were initially introduced into the phenyl ring to evaluate their impact on the selectivity profile against both IKKs (5 a-g SU1354 -SU1373, Table 2 ). Our goal was to achieve a 1:50 selectivity ratio of IKKα to IKKβ, with a minimum IKKβ inhibitory Ki of 500 nM.

The target of data set [9] is T2, IKKα. The following applies: previous work [6]; read-out: IKKα inhibitory activity (Ki) of previous hit; cited from earlier work.
For data set [10], the system named is IKKα over IKKβ. The following applies: previous work [6]; cited from earlier work.
Data set [11] has as its system U2OS cells. The following applies: cited from earlier work.

Read-outs that look alike come from different tables or passages of the source.

Consider 4 compounds from patent publication US20260315487A1, “IKK-ALPHA INHIBITORS” (Cancer Research Technology Limited, priority 2023, published 2026).

CDK9, sequence (P50750 whole entry, species assumed): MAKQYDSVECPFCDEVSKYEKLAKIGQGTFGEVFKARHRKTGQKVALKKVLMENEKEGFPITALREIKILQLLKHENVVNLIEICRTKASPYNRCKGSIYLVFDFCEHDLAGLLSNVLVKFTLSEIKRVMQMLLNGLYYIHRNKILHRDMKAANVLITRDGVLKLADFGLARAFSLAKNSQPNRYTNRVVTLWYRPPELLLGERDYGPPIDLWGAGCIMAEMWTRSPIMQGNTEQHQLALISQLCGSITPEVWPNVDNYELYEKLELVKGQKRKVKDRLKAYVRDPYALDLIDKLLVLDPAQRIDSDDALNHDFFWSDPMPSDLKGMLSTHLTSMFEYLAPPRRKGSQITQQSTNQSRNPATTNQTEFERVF
CDK9, sequence (O60563 whole entry partner, species assumed): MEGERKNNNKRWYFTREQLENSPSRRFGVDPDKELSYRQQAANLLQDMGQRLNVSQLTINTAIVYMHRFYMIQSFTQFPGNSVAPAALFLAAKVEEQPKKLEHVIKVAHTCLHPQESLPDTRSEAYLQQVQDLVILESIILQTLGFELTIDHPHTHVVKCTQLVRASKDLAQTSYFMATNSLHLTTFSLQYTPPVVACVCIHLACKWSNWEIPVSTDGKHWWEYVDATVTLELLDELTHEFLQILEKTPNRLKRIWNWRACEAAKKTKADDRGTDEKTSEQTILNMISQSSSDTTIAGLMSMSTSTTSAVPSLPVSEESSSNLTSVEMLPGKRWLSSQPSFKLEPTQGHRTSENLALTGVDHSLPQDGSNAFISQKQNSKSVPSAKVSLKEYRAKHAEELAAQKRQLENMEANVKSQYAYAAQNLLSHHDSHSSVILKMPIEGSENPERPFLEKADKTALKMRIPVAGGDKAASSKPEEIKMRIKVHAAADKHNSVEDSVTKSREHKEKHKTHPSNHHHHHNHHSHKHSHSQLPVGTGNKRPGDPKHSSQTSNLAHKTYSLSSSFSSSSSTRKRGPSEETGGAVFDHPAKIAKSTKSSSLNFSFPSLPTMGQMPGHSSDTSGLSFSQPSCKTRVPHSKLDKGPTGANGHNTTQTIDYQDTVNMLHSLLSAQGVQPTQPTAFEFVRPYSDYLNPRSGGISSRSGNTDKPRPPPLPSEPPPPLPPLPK
CDK5, sequence (Q00535 whole entry, species assumed): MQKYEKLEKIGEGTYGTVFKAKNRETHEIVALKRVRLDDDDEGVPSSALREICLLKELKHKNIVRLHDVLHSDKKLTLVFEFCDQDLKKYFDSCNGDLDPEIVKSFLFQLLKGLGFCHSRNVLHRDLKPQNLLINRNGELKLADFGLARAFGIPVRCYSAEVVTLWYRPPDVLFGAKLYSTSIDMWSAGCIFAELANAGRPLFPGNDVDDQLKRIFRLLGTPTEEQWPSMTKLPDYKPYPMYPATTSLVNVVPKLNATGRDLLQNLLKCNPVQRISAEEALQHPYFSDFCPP
CDK5, sequence (Q15078 99-307 partner limits assumed, species assumed): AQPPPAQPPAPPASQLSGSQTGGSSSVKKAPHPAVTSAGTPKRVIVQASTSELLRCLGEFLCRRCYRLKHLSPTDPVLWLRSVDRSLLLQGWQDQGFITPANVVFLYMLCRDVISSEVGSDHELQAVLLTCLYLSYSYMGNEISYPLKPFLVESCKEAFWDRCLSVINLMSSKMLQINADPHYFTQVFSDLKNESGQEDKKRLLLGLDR

As usually defined, the inhibition is the drop in the measured response relative to a control, in per cent. For orientation: Ki means the dissociation constant of the complex between target and ligand, obtained from inhibition or displacement. As for `Nc1n[nH]c2ccc(-c3ccnc4[nH]c(-c5ccccc5)cc34)cc12` [4 SU1253, 5-(2 -Phenyl-1 H-pyrrolo[2,3-b]pyridin-4-yl)-1 H-indazol-3-amine], the “kinome selectivity, in words” value in [1] was “very promiscuous”. Also, the “number of kinases inhibited by >80 %” value came to 44 kinases in [1] (panel of 231 kinases) and 46 kinases in [1] (panel of 253 kinases (FIG. 11)). The inhibition at 1 µM in data set [2] and in data set [3] was above 80% each time. In addition, the inhibition constant (Ki) is 15 nM in data set [4] and 3 nM in data set [5].
In general, hepatocyte CLint refers to the rate of metabolic loss divided by the concentration. Read a low hepatocyte CLint as slow turnover. Consider `Nc1n[nH]c2ccc(-c3ccnc4[nH]c(-c5ccnc(OCc6ccncc6)c5)cc34)cc12` [6k SU1628, 5-(2-(2-(Pyridin-4-ylmethoxy)pyridin-4-yl)-1 H-pyrrolo[2,3-b]pyridin-4-yl)-1 H-indazol-3-amine], for which the “IKKβ inhibition, in words” value in data set [4] is “potent inhibition against IKKβ”. Besides, the Ki in data set [4] is 12 nM; in data set [5], 6 nM. The compound further showed a hepatocyte CLint in data set [6] of 11 µL/min/1e6 cells. For the same compound, the “solubility, in words” value in data set [7] is “requisite solubility”. In addition, the “selectivity for IKKα over IKKβ, in words” value in data set [8] is listed as “equipotent against both isoforms”.
On to `Nc1n[nH]c2ccc(-c3ccnc4[nH]c(-c5cccc(CNC6CCCC6)c5)cc34)cc12` [5n SU1550, 5-(2-(3-((cyclopentylamino)methyl)phenyl)-1 H-pyrrolo[2,3-b]pyridin-4-yl)-1 H-indazol-3-amine], for which the figures for the inhibition constant Ki in data set [4] and in data set [5] were 191 nM and 10 nM, respectively. Moreover, the “selectivity for IKKα over IKKβ, in words” value in data set [8] is “tended to improve selectivity”.
In the case of `N#Cc1c[nH]c2nc(N)nc(-c3ccc(S(N)(=O)=O)cc3)c12` [1 SU909], the Ki in data set [9] was 80 nM. The “selective inhibition of IKKα, in words” value in [10] is on record as “selective inhibitor of IKKα”. In data set [11], the “selectivity in U2OS cells, in words” value is given as “recapitulated this discrimination in U2OS cells”.
